Structures can show the parent of a compound that is named as a salt.

This experiment concerns the target T1, Cloned Neurokinin Receptor Subtype 2 Human (Homo sapiens, UniProt P21452).
T1 construct: purchased Biosignal Packard; host or cells: CHO cells
T1 sequence (P21452 1-398): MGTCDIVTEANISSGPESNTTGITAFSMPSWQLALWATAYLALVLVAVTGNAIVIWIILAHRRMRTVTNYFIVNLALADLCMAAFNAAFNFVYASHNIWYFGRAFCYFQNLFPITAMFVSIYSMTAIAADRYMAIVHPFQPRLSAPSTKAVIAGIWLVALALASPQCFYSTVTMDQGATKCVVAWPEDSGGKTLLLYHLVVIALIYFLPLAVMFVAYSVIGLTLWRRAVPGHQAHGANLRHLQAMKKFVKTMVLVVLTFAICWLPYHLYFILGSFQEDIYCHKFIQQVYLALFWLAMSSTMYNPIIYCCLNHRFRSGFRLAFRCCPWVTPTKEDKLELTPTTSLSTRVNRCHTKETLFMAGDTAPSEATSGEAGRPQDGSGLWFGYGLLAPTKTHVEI
The experiment is described as follows: NK-2 receptor-binding experiment ([3H]-SR48968, CHO cell membranes). The settings on record: Table 3; inhibition of [3H]-SR48968 (0.85 nM) binding, pseudo-Hill analysis. How it is done: 2. NK-2 Receptor-binding Experiment
Cloned Neurokinin Receptor Subtype 2 Human (CHO cells, Biosignal Packard), [^3H]-SR48968 (Amersham, final concentration 0.85 nM), and a test compound were mixed with 20 mM HEPES buffer, and the mixture was incubated for 50 minutes at 27° C. After completion of incubation, membrane components were collected by means of an automatic filtration apparatus (Brandel) onto a GF/C glass fiber filter (Whatman).
Before use, in order to prevent non-specific binding, the glass fiber filter had been pre-treated with 0.1% polyethylene imine solution for about 4 hours.
The filter employed to collect the membrane components was transferred to a plastic vial containing UltimaGold MV (5 mL), and measured by means of a liquid scintillation counter (Packard, 2000CA) in terms of the radioactivity.
Percent radioactive ligand-receptor binding inhibition of each test compound was calculated by use of the following equation, and IC50 (nM) was determined through pseudo-Hill analysis.
Percent inhibition (%)=[1−(C−A)/(B−A)]×100
A: Radioactivity attributed to non-specific binding
B: Radioactivity without test compound
C: Radioactivity with test compound
With `CCOC(=O)C(=O)N(C)C(CCN1CCC2(CC1)c1ccccc1C[C@@H]2O)(COCc1cc(OC)c(OC)c(OC)c1)c1ccc(Cl)c(Cl)c1` (mixture of isomers) [Compound No. 21, N-[1-(3,4-Dichloro-phenyl)-3-{spiro[((2S)-hydroxy)indan-1,4′-piperidine]}-1′-yl-1-(3,4,5-trimethoxy-benzyloxymethyl)-propyl]-N-methyl-oxamic acid ethyl ester hydrochloride], the half-inhibitory concentration (IC50) (in general, the point on the concentration scale where inhibition reaches its midpoint) was 8.7 nM. That is a single-digit nanomolar value.

`CN(CC(CCN1CCC2(CC1)c1ccccc1C[S@+]2[O-])(c1ccc(Cl)c(Cl)c1)N(C)C(=O)C(=O)N(C)c1ccccc1)C(=O)CC(F)(F)F` (single isomer, unassigned) [Compound No. 10] returned an IC50 of 4.1 nM.

`CN(CC(CCN1CCC2(CC1)NC(=O)Cc1ccccc12)(c1ccc(Cl)c(Cl)c1)N(C)C(=O)NC(c1ccccc1)c1ccccc1)C(=O)C(F)(F)F` (stereo not drawn) [Compound No. 3, N-{2-(3-benzhydryl-1-methylureido)-2-(3,4-dihydrodichlorophenyl)-4-{spiro[isoquinoline-1(2H),4′-piperidine]-3(4H)-one}-1′-yl-butyl}-2,2,2-trifluoro-N-methyl-acetamide hydrochloride] gave a concentration for half-maximal inhibition (IC50) of 1.7 nM.

With `CN(CC(CCN1CCC2(CC1)c1ccccc1C[S+]2[O-])(c1ccc(Cl)c(Cl)c1)N(C)C(=O)C(=O)Nc1ccccc1Cl)C(=O)CC(F)(F)F` [Compound No. 9, N-(2-Chloro-phenyl)-N′-{1-(3,4-dichloro-phenyl)-1-{[methyl-(3,3,3-trifluoro-propionyl)-amino]-methyl}-3-{spiro[benzo(c)thiophene-1(3H),4′-piperidine]-(2S)-oxido}-1′-yl-propyl}-N′-methyl-oxalamide hydrochloride], the IC50 stood at 7.2 nM.

As for `CN(CC(CCN1CCC2(CC1)c1ccccc1CS2(=O)=O)(c1ccc(Cl)c(Cl)c1)N(C)C(=O)NC(c1ccccc1)c1ccccc1)C(=O)C(F)F` (stereo not drawn) [Compound No. 11, N-[2-(3-Benzhydryl-1-methyl-ureido)-2-(3,4-dichloro-phenyl)-4-{spiro[benzo(c)thiophene-1(3H),4′-piperidine]-2,2-dioxido}-1′-yl-butyl]-2,2-difluoro-N-methyl-acetamide hydrochloride], the IC50 turned out to be 8.1 nM. This IC50 and that of the molecule before are within 1.5-fold of each other.

`CN(CC(CCN1CCC2(CC1)c1ccccc1C[S+]2[O-])(c1ccc(Cl)c(Cl)c1)N(C)C(=O)c1ccccc1)C(=O)CC(F)(F)F` [Compound No. 13, N-{1-(3,4-Dichloro-phenyl)-1-{[methyl-(3,3,3-trifluoro-propionyl)-amino]-methyl}-3-{spiro[benzo(c)thiophene-1(3H),4′-piperidine]-(2S)-oxido}-1′-yl-propyl}-N-methyl-benzamide hydrochloride]: the half-inhibitory concentration (IC50) was 2.6 nM.

Turning to `CN(CC(CCN1CCC2(CC1)c1ccccc1C[S+]2[O-])(c1ccc(Cl)c(Cl)c1)N(C)C(=O)Cc1ccccc1)C(=O)CC(F)(F)F` [Compound No. 14, N-[2-(3,4-Dichloro-phenyl)-2-(methyl-phenylacetyl-amino)-4-{spiro[benzo(c)thiophene-1(3H),4′-piperidine]-(2S)-oxido}-1′-yl-butyl]-3,3,3-trifluoro-N-methyl-propionamide hydrochloride], the IC50 turned out to be 0.34 nM. Against the preceding molecule, the IC50 is about 7.6-fold lower.

Take `CN(C[C@](CCN1CCC2(CC1)NC(=O)Cc1ccccc12)(c1ccc(Cl)c(Cl)c1)N(C)C(=O)c1ccccc1)C(=O)CC(F)(F)F` [Compound No. 22, N-{1-(3,3,3-trifluoro-N-methylpropanamido)-2-(S)-(3,4-dichlorophenyl)-4-[3-oxo-3,4-dihydro-2H-spiro(isoquinoline-1,4′-piperidin)-1′-yl]butan-2-yl}-N-methylbenzamide hydrochloride]: the IC50 stood at 0.95 nM. Against the preceding molecule, the IC50 is about 2.8-fold higher.

`CN(C[C@](CCN1CCC2(CC1)NC(=O)Cc1ccccc12)(c1ccc(Cl)c(Cl)c1)N(C)C(=O)c1ccccc1)C(=O)C(F)(F)F` [Compound No. 23, N-{1-(2,2,2-trifluoro-N-methylacetamide)-2-(S)-(3,4-dichlorophenyl)-4-[3-oxo-3,4-dihydro-2H-spiro(isoquinoline-1,4′-piperidin)-1′-yl]butan-2-yl}-N-methylbenzamide hydrochloride]: the half-inhibitory concentration (IC50) was 1.7 nM. Compared with the last molecule, the IC50 is about 1.8-fold higher.

The molecule `CN(C[C@](CCN1CCC2(CC1)NC(=O)Cc1ccccc12)(c1ccc(Cl)c(Cl)c1)N(C)C(=O)c1ccc(C(F)(F)F)cc1)C(=O)C(F)(F)F` [Compound No. 24, N-{1-(2,2,2-trifluoro-N-methylacetamide)-2-(S)-(3,4-dichlorophenyl)-4-[3-oxo-3,4-dihydro-2H-spiro(isoquinoline-1,4′-piperidin)-1′-yl]butan-2-yl}-N-methyl-4-trifluoromethyl-benzamide hydrochloride] had an IC50 of 2.9 nM.

The molecule `CCN(C(=O)C(=O)N(C)[C@](CCN1CCC2(CC1)c1ccccc1C[S@+]2[O-])(CN(C)C(=O)CC(F)(F)F)c1ccc(Cl)c(Cl)c1)c1ccccc1` [Compound No. 25, N^1-{1-(3,3,3-trifluoro-N-methylpropanamido)-2-(S)-(3,4-dichlorophenyl)-4-[spiro(benzo(c)thiophene-(2S)-oxido-1(3H),4′-piperidin)-1′-yl]butan-2-yl}-N^1-methyl-N^2-ethyl-N^2-phenyloxalamide hydrochloride] came in with an IC50 of 0.58 nM. This IC50 lies about 5-fold lower than the previous one.

Turning to `CN(C[C@](CCN1CCC2(CC1)c1ccccc1C[S@+]2[O-])(c1ccc(Cl)c(Cl)c1)N(C)C(=O)c1ccccc1)C(=O)C(F)(F)F` [Compound No. 26, N-{1-(2,2,2-trifluoro-N-methylacetamide)-2-(S)-(3,4-dichlorophenyl)-4-[spiro(benzo(c)thiophene-(2S)-oxido-1(3H),4′-piperidin)-1′-yl]butan-2-yl}-N-methylbenzamide hydrochloride], the 50% inhibitory concentration (IC50) amounted to 0.85 nM.

Take `CN(C[C@](CCN1CCC2(CC1)NC(=O)Cc1ccccc12)(c1ccc(Cl)c(Cl)c1)N(C)C(=O)C(=O)N(C)c1ccccc1)C(=O)CC(F)(F)F` [Compound No. 27, N^1-{1-(3,3,3-trifluoro-N-methylpropanamido)-2-(S)-(3,4-dichlorophenyl)-4-[3-oxo-3,4-dihydro-2H-spiro(isoquinoline-1,4′-piperidin)-1′-yl]butan-2-yl}-N^1,N^2-dimethyl-N^2-phenyloxalamide hydrochloride]: the 50% inhibitory concentration (IC50) worked out at 6.7 nM. This IC50 is about 7.9-fold higher than that of the molecule before.

Turning to `CN(C[C@](CCN1CCC2(CC1)c1ccccc1CS2(=O)=O)(c1ccc(Cl)c(Cl)c1)N(C)C(=O)Cc1ccccc1)C(=O)CC(F)(F)F` [Compound No. 28, N-(1-(3,3,3-trifluoro-N-methylpropanamido)-2-(S)-(3,4-dichlorophenyl)-4-[spiro(benzo(c)thiophene-2,2-dioxido-1(3H),4′-piperidin)-1′-yl]butan-2-yl}-N-methyl-phenylacetamide hydrochloride], the IC50 was found to be 2.6 nM. Compared with the last molecule, the IC50 is about 2.6-fold lower.

`CN(C[C@](CCN1CCC2(CC1)NC(=O)Cc1ccccc12)(c1ccc(Cl)c(Cl)c1)N(C)C(=O)C(=O)Nc1ccccc1)C(=O)C(F)(F)F` [Compound No. 29, N^1-{1-(2,2,2-trifluoro-N-methylacetamide)-2-(S)-(3,4-dichlorophenyl)-4-[3-oxo-3,4-dihydro-2H-spiro(isoquinoline-1,4′-piperidin)-1′-yl]butan-2-yl}-N^1-methyl-N^2-phenyloxalamide hydrochloride] showed a 50% inhibitory concentration (IC50) of 4 nM.

Take `CN(C[C@](CCN1CCC2(CC1)c1ccccc1C[S@+]2[O-])(c1ccc(Cl)c(Cl)c1)N(C)C(=O)c1ccccc1F)C(=O)CC(F)(F)F` [Compound No. 30, N-{1-(3,3,3-trifluoro-N-methylpropanamido)-2-(S)-(3,4-dichlorophenyl)-4-[spiro(benzo(c)thiophene-(2S)-oxido-1(3H),4′-piperidin)-1′-yl]butan-2-yl}-N-methyl-2-fluorobenzamide hydrochloride]: the IC50 was found to be 1.2 nM.

Turning to `CN(C[C@](CCN1CCC2(CC1)c1ccccc1C[S@+]2[O-])(c1ccc(Cl)c(Cl)c1)N(C)C(=O)c1ccc(C(F)(F)F)cc1)C(=O)CC(F)(F)F` [Compound No. 31, N-{1-(3,3,3-trifluoro-N-methylpropanamido)-2-(S)-(3,4-dichlorophenyl)-4-[spiro(benzo(c)thiophene-(2S)-oxido-1(3H),4′-piperidin)-1′-yl]butan-2-yl}-N-methyl-4-trifluoromethylbenzamide hydrochloride], the IC50 was 0.75 nM.

On to `CC(C)C(=O)N(C)C[C@](CCN1CCC2(CC1)c1ccccc1C[S@+]2[O-])(c1ccc(Cl)c(Cl)c1)N(C)C(=O)c1ccccc1` [Compound No. 32, N-{1-(N-methylisobutylamide)-2-(S)-(3,4-dichlorophenyl)-4-[spiro(benzo(c)thiophene-(2S)-oxido-1(3H),4′-piperidin)-1′-yl]butan-2-yl}-N-methylbenzamide hydrochloride], for which the concentration for half-maximal inhibition (IC50) came out at 1 nM.

The values above are taken from patent publication US7276511B2, “Benzylamine derivative” (Zeria Pharmaceutical Co., Ltd., priority 2003, dated 2007).
